Laboratory results from patent US10336702B2, “Pharmaceutically active compounds” (BERGENBIO ASA, priority 2015, dated 2019).

Experiments:
p-Akt1 in LNCaP cells = biological target: T1, p-Akt1 in LNCaP cells (Homo sapiens, UniProt P31749); test: Phospho-Akt cellular SureFire assay, p-Akt1 in LNCaP cells; assay type: cell-based; details: read-out: Biological Assay 2 IC50 (nM) Akt1 LNCaP
T1 construct: SureFire assays to detect cellular p-Akt1, p-Akt2 and p-Akt3 levels in WM115 cells (Akt2/3) and LNCaP cells (Akt1); endogenous in cells; host or cells: LNCaP (ECACC 89110211)
T1 sequence (P31749 whole entry): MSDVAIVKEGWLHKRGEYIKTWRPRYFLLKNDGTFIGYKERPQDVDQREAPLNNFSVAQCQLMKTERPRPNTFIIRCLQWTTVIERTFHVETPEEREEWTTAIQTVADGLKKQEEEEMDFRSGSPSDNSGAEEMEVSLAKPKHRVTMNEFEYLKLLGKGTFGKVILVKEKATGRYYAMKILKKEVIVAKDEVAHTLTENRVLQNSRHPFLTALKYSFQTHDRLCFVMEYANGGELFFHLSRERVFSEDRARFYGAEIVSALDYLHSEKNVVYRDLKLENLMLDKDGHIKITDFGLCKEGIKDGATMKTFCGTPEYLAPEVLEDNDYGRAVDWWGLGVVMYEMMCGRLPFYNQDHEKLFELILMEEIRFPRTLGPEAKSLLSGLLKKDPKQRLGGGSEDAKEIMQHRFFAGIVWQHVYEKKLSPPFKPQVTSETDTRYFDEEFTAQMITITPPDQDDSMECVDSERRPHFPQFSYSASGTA
Description: (§1) Biological Assay 2: Phospho-Akt (p-Akt) Cellular SureFire Assays
(§2) The following describes SureFire assays to detect cellular p-Akt1, p-Akt2 and p-Akt3 levels in WM115 cells (Akt2/3) and LNCaP cells (Akt1). In the case of Akt2 and Akt3, Streptavidin-coated donor beads capture a biotinylated anti-mouse antibody that in turn recognises a mouse total Akt antibody which is specific to each isoform. The protein A-conjugated acceptor beads capture an antibody that recognises the phosphoprotein. Similarly in the Akt1 kit, the donor and acceptor beads are used to capture each antibody pair consisting of an antibody that specifically recognises Akt1 as well as an antibody that recognises the phosphoprotein. In each case, close proximity of the beads allows energy transfer from donor to acceptor.
AlphaScreen® SureFire™ Phospho-Akt1 (pThr308) Kit from Perkin Elmer (TGRA2S10K)
LNCaP cells (ECACC, 89110211) cultured in RPMI-1640 culture media (Fisher, 10665193) supplemented with 2 mM L-glutamine, 1% sodium pyruvate and 10% FBS
(§3) Cell treatment: 1×10^5 WM115 cells or 5×10^4 LNCaP cells were seeded into each well of a 96 well poly-D-Lysine coated tissue culture plate and incubated overnight at 37° C.+5% CO2. Media was removed from cells and replaced with assay buffer consisting of the full culture media described above but with 0.1% FBS instead of 10% FBS. Only WM115 cells were stimulated at 37° C.+5% CO2 for 10 min with 5 μL insulin at a final concentration of 100 nM. Cells were incubated with 5 μL of test compound at a final DMSO concentration of 0.3% for 15 min at 37° C.+5% CO2. Cell lysis was carried out according to kit instructions.
(§4) Assay format (performed in subdued lighting): 4 μL cell lysate and 5 μL reaction buffer were incubated together in the dark at room temperature for 2 h. Reaction buffer was supplemented with a 1/5 dilution of activation buffer, a 1/50 dilution of acceptor beads and in the case of the custom kits, antibodies were added at dilutions of 1/20,000 for Akt2 and 1/2,000 for Akt3.
(§5) 2 μL dilution buffer, supplemented with a 1/20 dilution of donor beads was added to each well and incubated for a further 2 h. Plates were read with the EnVision® Multilabel Plate Reader and using the AlphaScreen settings. Compound IC50 was determined using a 4-parameter equation.

p-Akt3 in WM115 cells = biological target: T2, p-Akt3 in WM115 cells (Homo sapiens, UniProt Q9Y243); test: Phospho-Akt cellular SureFire assay, p-Akt3 in WM115 cells; assay type: cell-based; details: insulin stimulated, read-out: Biological Assay 2 IC50 (nM) Akt3 WM115
T2 construct: SureFire assays to detect cellular p-Akt1, p-Akt2 and p-Akt3 levels in WM115 cells (Akt2/3) and LNCaP cells (Akt1); endogenous in cells; host or cells: WM115 (ECACC 91061232), insulin-stimulated
T2 sequence (Q9Y243 whole entry): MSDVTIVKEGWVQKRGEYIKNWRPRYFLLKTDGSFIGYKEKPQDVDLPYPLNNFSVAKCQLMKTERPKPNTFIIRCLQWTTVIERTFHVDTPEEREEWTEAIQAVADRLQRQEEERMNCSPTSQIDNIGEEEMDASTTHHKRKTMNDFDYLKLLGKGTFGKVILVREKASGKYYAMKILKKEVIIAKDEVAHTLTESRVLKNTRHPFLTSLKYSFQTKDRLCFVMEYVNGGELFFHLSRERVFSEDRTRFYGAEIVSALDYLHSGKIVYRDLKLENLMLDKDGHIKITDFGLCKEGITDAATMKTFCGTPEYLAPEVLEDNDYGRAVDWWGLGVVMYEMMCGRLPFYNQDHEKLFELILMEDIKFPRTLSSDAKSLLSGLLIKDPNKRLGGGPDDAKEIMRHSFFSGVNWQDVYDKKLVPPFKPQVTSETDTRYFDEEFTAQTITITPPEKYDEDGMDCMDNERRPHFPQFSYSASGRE
Description: as §1, §2
(§6) Custom kit from TGR/Perkin Elmer for Akt2/3 containing anti-(pThr308)Akt antibody and biotinylated anti-mouse capture antibody.
Total Akt3 antibody (R&D Systems MAB 1463)
(§7) WM115 cells (ECACC, 91061232) cultured in MEM culture media (M2279) supplemented with 2 mM L-glutamine (G7513), 1% non-essential amino acids (M7145), 1% sodium pyruvate (S8636) and 10% FBS (F0804)
as §3, §4, §5

p-Akt2 in WM115 cells = biological target: T3, p-Akt2 in WM115 cells (Homo sapiens, UniProt P31751); test: Phospho-Akt cellular SureFire assay, p-Akt2 in WM115 cells; assay type: cell-based; details: insulin stimulated, read-out: Biological Assay 2 IC50 (nM) Akt2 WM115
T3 construct: SureFire assays to detect cellular p-Akt1, p-Akt2 and p-Akt3 levels in WM115 cells (Akt2/3) and LNCaP cells (Akt1); endogenous in cells; host or cells: WM115 (ECACC 91061232), insulin-stimulated
T3 sequence (P31751 whole entry): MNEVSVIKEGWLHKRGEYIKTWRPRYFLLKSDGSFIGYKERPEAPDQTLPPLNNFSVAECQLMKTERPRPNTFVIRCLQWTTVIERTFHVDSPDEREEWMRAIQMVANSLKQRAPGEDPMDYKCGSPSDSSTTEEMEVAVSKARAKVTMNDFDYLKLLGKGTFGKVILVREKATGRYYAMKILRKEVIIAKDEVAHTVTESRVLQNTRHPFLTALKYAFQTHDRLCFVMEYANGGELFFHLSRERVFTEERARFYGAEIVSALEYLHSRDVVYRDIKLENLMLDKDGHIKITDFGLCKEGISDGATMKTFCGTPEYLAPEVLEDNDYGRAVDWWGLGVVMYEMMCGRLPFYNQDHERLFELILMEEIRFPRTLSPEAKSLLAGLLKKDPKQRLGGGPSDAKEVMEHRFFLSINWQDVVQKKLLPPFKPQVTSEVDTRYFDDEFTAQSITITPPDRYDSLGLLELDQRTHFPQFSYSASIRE
Description: as §1, §2, §6
Total Akt2 antibody (NEB UK, 5239)
as §7, §3, §4, §5

Akt2 = biological target: T4, Akt2 (Homo sapiens, UniProt P31751); test: Akt activation assay (PDK1-mediated activation, LANCE Ultra crosstide TR-FRET), Akt2; assay type: biochemical; details: read-out: Biological Assay 1 IC50 (nM) Akt2
T4 construct: unspecified tag, removed (detagged) (cleaved yes); purchased SignalChem and Proteros (Akt2); Merck Millipore (PDK1) 14-452 (PDK1); none given for Akt2
T4 sequence (P31751 whole entry): as above
Outline: (§8)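 This TR-FRET readout (Eu-anti-phospho-crosstide antibody, 665/615 nm) measured PDK1-driven activation of Akt. Compound was first preincubated with each Akt isoform: Akt1 5 nM; Akt2 15 nM SignalChem or 5 nM Proteros; Akt3 3 nM SignalChem or 5 nM Proteros. Reactions then ran 30 min with 5 nM PDK1, lipid vesicles containing 0.55 µM PtdIns(3,4,5)P3, 100 µM ATP and 100 nM crosstide at pH 7.5, and IC50 came from a 4-parameter equation.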

Akt3 = biological target: T5, Akt3 (Homo sapiens, UniProt Q9Y243); test: Akt activation assay (PDK1-mediated activation, LANCE Ultra crosstide TR-FRET), Akt3; assay type: biochemical; details: read-out: Biological Assay 1 IC50 (nM) Akt3
T5 construct: unspecified tag, removed (detagged) (cleaved yes); purchased SignalChem and Proteros (Akt3); Merck Millipore (PDK1) 14-452 (PDK1); none given for Akt3
T5 sequence (Q9Y243 whole entry): as the sequence (Q9Y243 whole entry) above
Outline: as §8

Akt1 = biological target: T6, Akt1 (Homo sapiens, UniProt P31749); test: Akt activation assay (PDK1-mediated activation, LANCE Ultra crosstide TR-FRET), Akt1; assay type: biochemical; details: read-out: Biological Assay 1 IC50 (nM) Akt1
T6 construct: unspecified tag, removed (detagged) (cleaved yes); purchased SignalChem and Proteros (Akt1); Merck Millipore (PDK1) 14-452 (PDK1); none given for Akt1
T6 sequence (P31749 whole entry): as the sequence (P31749 whole entry) above
Outline: as §8

SMILES	IC50 (p-Akt1 in LNCaP cells)	IC50 (p-Akt3 in WM115 cells)	IC50 (p-Akt2 in WM115 cells)	IC50 (Akt2)	IC50 (Akt3)	IC50 (Akt1)
CC(=O)N[C@H]1CC[C@H](C(C)C(=O)Nc2cnc(-c3ccc(C4(N)CCC4)cc3)c(-c3ccccc3)c2)CC1 (relative stereo) [Example 41, 2-(trans-4-acetamidocyclohexyl)-N-(6-(4-(1-aminocyclobutyl)phenyl)-5-phenylpyridin-3-yl)propanamide]	> 30000 nM	130 nM	1500 nM	240 nM	170 nM	–
CC(C)(N)c1ccc(-c2ncc(NC(=O)C[C@H]3CC[C@H](N4CCCCC4=O)CC3)cc2-c2ccccc2)cc1 [Example 28, N-(6-(4-(2-aminopropan-2-yl)phenyl)-5-phenylpyridin-3-yl)-2-(trans-4-(2-oxopiperidin-1-yl)cyclohexyl)acetamide]	> 30000 nM	260 nM	–	7000 nM	440 nM	> 30000 nM
COC(=O)N(C)[C@H]1CC[C@H](CC(=O)Nc2cnc(-c3ccc(C4(N)CC4)c(F)c3)c(-c3ccccc3)c2)CC1 [Example 62, Methyl (trans-4-(2-((6-(4-(1-aminocyclopropyl)-3-fluorophenyl)-5-phenylpyridin-3-yl)amino)-2-oxoethyl)cyclohexyl)(methyl)carbamate]	> 30000 nM	360 nM	–	2300 nM	170 nM	> 30000 nM
C[C@]1(O)C[C@@](N)(c2ccc(-c3nnc(NC(=O)C[C@H]4CC[C@H](N5CCOC5=O)CC4)nc3-c3ccccc3F)cc2)C1 [Example 68, N-(6-(4-(trans-1-amino-3-hydroxy-3-methylcyclobutyl)phenyl)-5-(2-fluorophenyl)-1,2,4-triazin-3-yl)-2-(trans-4-(2-oxooxazolidin-3-yl)cyclohexyl)acetamide]	> 30000 nM	410 nM	–	860 nM	99 nM	6400 nM
CCN(C(=O)OC)[C@H]1CC[C@H](CC(=O)Nc2cc(-c3ccccc3)c(-c3ccc([C@]4(N)C[C@](C)(O)C4)cc3)cn2)CC1 [Example 116, Methyl (trans-4-(2-((5-(4-(trans-1-amino-3-hydroxy-3-methylcyclobutyl)phenyl)-4-phenylpyridin-2-yl)amino)-2-oxoethyl)cyclohexyl) (ethyl)carbamate]	–	72 nM	1400 nM	220 nM	21 nM	> 30000 nM
CCC(=O)N(C)[C@H]1CC[C@H](CC(=O)Nc2cc(-c3ccccc3)c(-c3ccc([C@]4(N)C[C@H](F)C4)cc3)nn2)CC1 [Example 123, N-(trans-4-(2-((6-(4-(trans-1-amino-3-fluorocyclobutyl)phenyl)-5-phenylpyridazin-3-yl)amino)-2-oxoethyl)cyclohexyl)-N-methylpropionamide]	–	38 nM	1700 nM	230 nM	12 nM	> 25000 nM
NC1(c2ccc(-c3ncc(NC(=O)C[C@H]4CC[C@H](N5CCOC5=O)CC4)cc3-c3ccccc3)cc2)CC(F)(F)C1 [Example A3, N-(6-(4-(1-amino-3,3-difluorocyclobutyl)phenyl)-5-phenylpyridin-3-yl)-2-(trans-4-(2-oxooxazolidin-3-yl)cyclohexyl)acetamide]	–	100 nM	2600 nM	530 nM	150 nM	> 5100 nM
Cc1nncn1[C@H]1CC[C@H](CC(=O)Nc2cnc(-c3ccc(C4(N)CCC4)cc3)c(-c3ccccc3)c2)CC1 [Example A17, N-(6-(4-(1-aminocyclobutyl)phenyl)-5-phenylpyridin-3-yl)-2-(trans-4-(3-methyl-1,2,4-triazol-4-yl)cyclohexyl)acetamide]	–	1000 nM	12000 nM	420 nM	62 nM	1500 nM
NC1(c2ccc(-c3ncc(NC(=O)C[C@H]4CC[C@H](N5CCOC5=O)CC4)cc3-c3ccccc3)cc2)CCC1 [Example A27, N-(6-(4-(1-aminocyclobutyl)phenyl)-5-phenylpyridin-3-yl)-2-(trans-4-(2-oxooxazolidin-3-yl)cyclohexyl)acetamide]	–	51 nM	790 nM	180 nM	19 nM	4100 nM
COC(=O)N(C)[C@H]1CC[C@H](CC(=O)Nc2cc(-c3ccccc3)c(-c3ccc(C(C)(C)N)cc3)cn2)CC1 [Example A48, Methyl (trans-4-(2-((5-(4-(2-aminopropan-2-yl)phenyl)-4-phenylpyridin-2-yl)amino)-2-oxoethyl)cyclohexyl)(methyl)carbamate]	> 30000 nM	1700 nM	> 30000 nM	–	–	–
CC(=O)N(C)[C@H]1CC[C@H](CC(=O)Nc2cc(-c3ccccc3)c(-c3ccc(C4(N)CCC4)cc3)nn2)CC1 [Example A56, N-(6-(4-(1-aminocyclobutyl)phenyl)-5-phenylpyridazin-3-yl)-2-(trans-4-(N-methylacetamido)cyclohexyl)acetamide]	–	43 nM	1300 nM	270 nM	7 nM	11000 nM
COC(=O)N(C)[C@H]1CC[C@H](CC(=O)Nc2cc(-c3ccccc3)c(-c3ccc(C4(N)CC4)cc3)nn2)CC1 [Example A77, Methyl (trans-4-(2-((6-(4-(1-aminocyclopropyl)phenyl)-5-phenylpyridazin-3-yl)amino)-2-oxoethyl)cyclohexyl)(methyl)carbamate]	> 30000 nM	240 nM	–	590 nM	22 nM	> 25000 nM
CCOC(=O)N(C)[C@H]1CC[C@H](CC(=O)Nc2cc(-c3ccsc3)c(-c3ccc([C@]4(N)C[C@](C)(O)C4)cc3)cn2)CC1 [Example A90, Ethyl (trans-4-(2-((5-(4-(trans-1-amino-3-hydroxy-3-methylcyclobutyl)phenyl)-4-(thiophen-3-yl)pyridin-2-yl)amino)-2-oxoethyl)cyclohexyl)(methyl)carbamate]	–	180 nM	4700 nM	300 nM	15 nM	10000 nM
CCC(=O)N(C)[C@H]1CC[C@H](CC(=O)Nc2cc(-c3ccccc3F)c(-c3ccc(C4(N)CCC4)cc3)cn2)CC1 [Example A102, N-(trans-4-(2-((5-(4-(1-aminocyclobutyl)phenyl)-4-(2-fluorophenyl)pyridin-2-yl)amino)-2-oxoethyl)cyclohexyl)-N-methylpropionamide]	–	160 nM	2300 nM	100 nM	14 nM	> 19000 nM
